This is an account of results in PMC5862516 (PLoS Neglected Tropical Diseases, 2018).

In data set [1] the test system is SOSV minigenome. The conditions noted are these: Huh7 cells; for Minigenome activity (Relative ZsG fluorescence): relative to mock-treated controls.
Data set [2] deals with SOSV minigenome. Nature of the data set: microbe, parasite or virus in culture. The conditions noted are these: Sosuga virus; for activity at 0.05 µM / activity at 0.5 µM / activity at 5 µM: Huh-7, 72 h, read-out: Minigenome activity (Relative ZsG fluorescence); for EC50: Huh-7, read-out: Minigenome Screen EC50.
In a further data set the test system is rSOSV/ZsG. As to the kind of experiment: microbe, parasite or virus in culture. The class given is cell-based. The conditions noted are these: Sosuga virus, Huh-7, read-out: rSOSV/ZsG Screen EC50.
A further data set can be described thus: in vitro. The conditions noted are these: human.
The subject of another data set is rSOSV. Nature of the data set: microbe, parasite or virus in culture. It counts as cell-based. The conditions noted are these: Sosuga virus, Huh-7, 48 h, read-out: EC50 (rSOSV protein immunofluorescence).
In the next data set the test system is Huh7 cells. The conditions noted are these: human.
The conditions of data set [3]: human, in vivo, 125 mg/kg/day; cited from earlier work.

Like-named read-outs stand apart in the source and are kept apart here. A value given as a limit tells only on which side of the number the result lay.

For `NC(=O)c1nc(F)cnc1O` [T-705], the “Minigenome activity (Relative ZsG fluorescence)” value in the data set on SOSV minigenome [1] (50 nM) is 1.11; in the data set with SOSV minigenome [1] (500 nM), 1.17; with SOSV minigenome [1] (5000 nM), 1.05.
Regarding `CC(C)OC(=O)[C@H](C)N[P@](=O)(OC[C@H]1O[C@@H](n2ccc(=O)[nH]c2=O)[C@](C)(F)[C@@H]1O)Oc1ccccc1` [PSI-7977], in the data set on SOSV minigenome [2], the activity at 0.05 µM came to 102%, the activity at 0.5 µM came out at 102% and the activity at 5 µM amounted to 89%.
As for `NC(=O)c1ncn([C@@H]2O[C@H](CO)[C@@H](O)[C@H]2O)n1` [Ribavirin], in the data set on SOSV minigenome [2], the activity at 0.05 µM came out at 136%, the activity at 0.5 µM stood at 113%, the activity at 5 µM was found to be 78% and the EC50 is 5.91 ± 0.85 µM. The EC50 in the data set on rSOSV/ZsG was determined as 6.1 ± 0.09 µM. In addition, the CC50 in the data set “in vitro” was more than 50 µM.
As a reminder, the viability is a read-out of living cells in per cent, often relative to untreated cells. Low readings indicate a greater loss of cells, high ones better survival. With `O=c1cnn([C@@H]2O[C@H](CO)[C@@H](O)[C@H]2O)c(=O)[nH]1` [6-azauridine], the EC50 with rSOSV was 8.9 µM. Besides, in the data set on SOSV minigenome [2], the activity at 0.05 µM was found to be 120%, the activity at 0.5 µM amounted to 103%, the activity at 5 µM came out at 46% and the EC50 turned out to be 5.17 ± 1.01 µM. Besides, in the data set on rSOSV/ZsG, the EC50 is 7.99 ± 1.32 µM. In “in vitro”, this molecule showed a viability of more than 80% and a CC50 of more than 50 µM.
Take `Nc1ccn([C@@H]2O[C@H](CO)[C@@H](O)[C@H]2F)c(=O)n1` [2′-deoxy-2′-fluorocytidine]: the EC50 in the data set on rSOSV amounted to 4.09 µM. Also, in the data set with SOSV minigenome [2], the activity at 0.05 µM is 141%, the activity at 0.5 µM came out at 91%, the activity at 5 µM is 13% and the EC50 stood at 1.31 ± 0.15 µM. Moreover, the EC50 in the data set on rSOSV/ZsG worked out at 1.48 ± 0.22 µM. In addition, in the data set “in vitro”, the viability was more than 80% and the CC50 was more than 50 µM.
With `CO[C@@H]1[C@H](O)[C@@H](CO)O[C@H]1n1ccc(N)nc1=O` [2′-O-Methylcytidine], in the data set with SOSV minigenome [2], the activity at 0.05 µM came out at 129%, the activity at 0.5 µM was 104% and the activity at 5 µM was determined as 119%.
On to `C[C@@]1(O)[C@H](O)[C@@H](CO)O[C@H]1n1ccc2c(N)ncnc21` [7-DMA], for which the results for the “Minigenome activity (Relative ZsG fluorescence)” value in the data set on SOSV minigenome [1] (50 nM), in the data set with SOSV minigenome [1] (500 nM) and in the data set on SOSV minigenome [1] (5000 nM) were 1.26, 1.02 and 1.06, respectively.
`O=c1cnn([C@@H]2O[C@H](CO)[C@@H](O)[C@H]2O)c(=S)[nH]1` [6-Aza-2-thiouridine]: in the data set on SOSV minigenome [2], the activity at 0.05 µM stood at 128%, the activity at 0.5 µM came to 95% and the activity at 5 µM came out at 110%.
As to `CC(C)C(=O)OC[C@@]1(N=[N+]=[N-])O[C@@H](n2ccc(N)nc2=O)[C@H](OC(=O)C(C)C)[C@@H]1OC(=O)C(C)C` [Balapiravir (R1626), Balapiravir], in the data set on SOSV minigenome [2], the activity at 0.05 µM is 105%, the activity at 0.5 µM came to 93% and the activity at 5 µM is 90%.
For `COc1c(C)c2c(c(O)c1C/C=C(\C)CCC(=O)O)C(=O)OC2` [Mycophenolic acid], the EC50 in the data set with rSOSV was 0.48 µM. In the data set with Huh7 cells, this molecule returned a CC50 of 1.74 ± 0.42 µM. For the same molecule, the “Minigenome Screen EC50” value in the data set with SOSV minigenome [1] (ZsG fluorescence 72 hpt, normalized to mock-treated (DMSO) cells, listed as MPA) is given as “sub-micromolar”. For the same molecule, in the data set on SOSV minigenome [2], the activity at 0.05 µM was 89%, the activity at 0.5 µM came to 14% and the activity at 5 µM stood at 1%. Moreover, the EC50 in the data set on rSOSV/ZsG is 0.33 ± 0.04 µM. In addition, in the data set “in vitro”, the viability is more than 80% and the CC50 came to 1.7 µM.
With `C#C[C@@]1(O)[C@H](O)[C@@H](CO)O[C@H]1n1ccc2c(N)ncnc21` [NITD008], the “Minigenome activity (Relative ZsG fluorescence)” value in the data set on SOSV minigenome [1] (50 nM) stood at 1.35; in the data set with SOSV minigenome [1] (500 nM) it was 1.07; in the data set with SOSV minigenome [1] (5000 nM), 1.13.
As to `C[C@@]1(O)[C@H](O)[C@@H](CO)O[C@H]1n1ccc(=O)[nH]c1=O` [2′-C-Methyluridine], in the data set on SOSV minigenome [2], the activity at 0.05 µM turned out to be 132%, the activity at 0.5 µM was found to be 101% and the activity at 5 µM was determined as 125%.
For the molecule `Nc1ncn([C@@H]2O[C@H](CO)[C@@H](O)[C@H]2O)c(=O)n1` [5-Azacytidine], in the data set on SOSV minigenome [2], the activity at 0.05 µM stood at 146%, the activity at 0.5 µM is 111% and the activity at 5 µM was found to be 108%.
With `[N-]=[N+]=N[C@]1(CO)O[C@@H](n2ccc(N)nc2=O)[C@H](O)[C@@H]1O` [R-1479], the “Minigenome activity (Relative ZsG fluorescence)” value turned out to be 0.91 in the data set on SOSV minigenome [1] (50 nM), 0.84 in the data set on SOSV minigenome [1] (500 nM) and 0.73 with SOSV minigenome [1] (5000 nM).
`Cc1cn([C@H]2C[C@H](N=[N+]=[N-])[C@@H](CO)O2)c(=O)[nH]c1=O` [Zidovudine]: in the data set with SOSV minigenome [2], the activity at 0.05 µM amounted to 123%, the activity at 0.5 µM was 93% and the activity at 5 µM turned out to be 113%.
With `CC(=O)OC[C@H]1O[C@@H](n2ncc(=O)[nH]c2=O)[C@H](OC(C)=O)[C@@H]1OC(C)=O` [6-azauridine triacetate], in data set [3], the plasma concentrations was not below 100 µM.
As to `Cc1cn([C@@H]2O[C@H](CO)[C@@H](O)[C@H]2O)c(=O)nc1N` [5-Methylcytidine], in the data set with SOSV minigenome [2], the activity at 0.05 µM amounted to 124%, the activity at 0.5 µM was 110% and the activity at 5 µM was determined as 125%.
The like results for `Nc1ncnc2c([C@@H]3N[C@H](CO)[C@@H](O)[C@H]3O)c[nH]c12` [BCX-4430] were, in that order, 133%, 105% and 118%.
In the case of `CO[C@@H]1[C@H](O)[C@@H](CO)O[C@H]1n1ccc(=O)[nH]c1=O` [2′-O-Methyluridine], in the data set with SOSV minigenome [2], the activity at 0.05 µM was 150%, the activity at 0.5 µM was found to be 104% and the activity at 5 µM is 142%.
As for `C[C@@]1(F)[C@H](O)[C@@H](CO)O[C@H]1n1ccc(N)nc1=O` [PSI-6130], the entries for the “Minigenome activity (Relative ZsG fluorescence)” value in the data set with SOSV minigenome [1] (50 nM), in the data set with SOSV minigenome [1] (500 nM) and in the data set on SOSV minigenome [1] (5000 nM) were 0.84, 0.85 and 0.91, respectively.
As for `O=c1[nH]c(=O)n([C@@H]2O[C@H](CO)[C@@H](O)[C@H]2O)cc1Cl` [5-Chlorouridine], in the data set with SOSV minigenome [2], the activity at 0.05 µM is 119%, the activity at 0.5 µM was 125% and the activity at 5 µM is 146%.
In the case of `Nc1nc(Cl)nc2c1ncn2[C@@H]1O[C@H](CO)[C@@H](O)[C@H]1O` [2-Chloroadenosine], in the data set on SOSV minigenome [2], the activity at 0.05 µM worked out at 148%, the activity at 0.5 µM came out at 143% and the activity at 5 µM amounted to 145%.
With `Cc1cn([C@H]2C=C[C@@H](CO)O2)c(=O)[nH]c1=O` [Stavudine], in the data set on SOSV minigenome [2], the activity at 0.05 µM was 126%, the activity at 0.5 µM came to 104% and the activity at 5 µM was 115%.
As to `O=c1[nH]c(=O)n([C@@H]2O[C@H](CO)[C@@H](O)[C@H]2O)cc1F` [5-fluorouridine], in the data set on SOSV minigenome [1] (dose-response analysis), the “Extent of minigenome signal inhibition and cytotoxicity” value is given as “did not completely inhibit minigenome signal even at the highest concentrations evaluated”. Further, in the data set with SOSV minigenome [2], the activity at 0.05 µM was determined as 112%, the activity at 0.5 µM came out at 25%, the activity at 5 µM turned out to be 10% and the EC50 turned out to be 0.29 ± 0.13 µM. In “in vitro”, this molecule came in with a viability of more than 80% and a CC50 of more than 50 µM.
For the molecule `Nc1ncnc2c1ncn2[C@@H]1O[C@H](CO)C[C@H]1O` [Cordycepin], in the data set with SOSV minigenome [2], the activity at 0.05 µM stood at 128%, the activity at 0.5 µM was determined as 104% and the activity at 5 µM was 101%.
For `Nc1ncnc2c1nnn2[C@@H]1O[C@H](CO)[C@@H](O)[C@H]1O` [8-Azaadenosine], in the data set with SOSV minigenome [2], the activity at 0.05 µM is 146%, the activity at 0.5 µM came out at 85% and the activity at 5 µM worked out at 2%.
`CC[C@H]1OC(=O)[C@H](C)[C@@H](O[C@H]2C[C@@](C)(OC)[C@@H](O)[C@H](C)O2)[C@H](C)[C@@H](O[C@@H]2O[C@H](C)C[C@H](N(C)C)[C@H]2O)[C@](C)(O)C[C@@H](C)CN(C)[C@H](C)[C@@H](O)[C@]1(C)O` [Azithromycin]: in the data set on SOSV minigenome [2], the activity at 0.05 µM amounted to 102%, the activity at 0.5 µM is 106% and the activity at 5 µM is 111%.
For `C[C@@]1(O)[C@H](O)[C@@H](CO)O[C@H]1n1ccc(N)nc1=O` [2′-C-Methylcytidine], in the data set on SOSV minigenome [2], the activity at 0.05 µM was determined as 124%, the activity at 0.5 µM was determined as 104% and the activity at 5 µM was 114%.
The matching figures for `COc1c(-c2ccc3cc(NS(C)(=O)=O)ccc3c2)cc(-n2ccc(=O)[nH]c2=O)cc1C(C)(C)C` [ABT-333]: 127%, 108% and 105%.
As for `C[C@H](Cn1cnc2c(N)ncnc21)OCP(=O)(O)O` [Tenofovir], in the data set with SOSV minigenome [2], the activity at 0.05 µM is 110%, the activity at 0.5 µM amounted to 106% and the activity at 5 µM amounted to 107%.
For `CC(C)C(=O)OC[C@H]1O[C@@H](n2ccc(N)nc2=O)[C@](C)(F)[C@@H]1OC(=O)C(C)C` [R-7128], the figures for the “Minigenome activity (Relative ZsG fluorescence)” value in the data set with SOSV minigenome [1] (50 nM), with SOSV minigenome [1] (500 nM) and in the data set with SOSV minigenome [1] (5000 nM) were 0.84, 0.87 and 0.99, respectively.
For `[N-]=[N+]=Nc1cn([C@@H]2O[C@H](CO)[C@@H](O)[C@H]2O)c(=O)[nH]c1=O` [5-Azidouridine], in the data set on SOSV minigenome [2], the activity at 0.05 µM stood at 114%, the activity at 0.5 µM came out at 104% and the activity at 5 µM worked out at 107%.
As to `[N-]=[N+]=Nc1nc2c(N)ncnc2n1[C@@H]1O[C@H](CO)[C@@H](O)[C@H]1O` [8-Azidoadenosine], in the data set on SOSV minigenome [2], the activity at 0.05 µM is 120%, the activity at 0.5 µM stood at 122% and the activity at 5 µM was 1%.
The matching figures for `O=c1[nH]c(=O)n([C@@H]2O[C@H](CO)[C@@H](O)[C@H]2O)cc1Br` [5-Bromouridine]: 97%, 92% and 122%.
